Test results from the supplement of paper PMC7840683.
± gives the standard deviation of the averaged measurements.

System: HepaRG
Test: LDH release cytotoxicity, % of total lysis control; higher = more cytotoxic
Settings: 48 h
Procedure, shortened: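 Eight-point half-log series of test chemicals, the highest at 100 µM, were given in duplicate for 48 h to single-lot HepaRG cells on collagen I-coated 96-well plates in serum-free induction medium with 0.5% DMSO. A Tecan Safire read resorufin fluorescence from CytoTox-ONE as a measure of LDH in 50 µL spent medium, with 0.1% Triton X in total lysis wells. Percent cytotoxicity was normalized to on-plate vehicle and total lysis controls and averaged over the duplicates.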

SMILES | LDH release cytotoxicity (0.03162 µM) [%] | LDH release cytotoxicity (0.1 µM) [%] | LDH release cytotoxicity (0.3162278 µM) [%] | LDH release cytotoxicity (1 µM) [%] | LDH release cytotoxicity (3.16228 µM) [%] | LDH release cytotoxicity (10 µM) [%] | LDH release cytotoxicity (31.6228 µM) [%] | LDH release cytotoxicity (100 µM) [%] | LDH release cytotoxicity (0.031623 µM) [%] | LDH release cytotoxicity (0.316228 µM) [%]
Nc1ccc(N=Nc2ccccc2)cc1 [4-Aminoazobenzene] | -0.0491 ± 1.1 | -1.19 ± 0.14 | -1.19 ± 0.25 | -1.05 ± 0.38 | -1.2 ± 0.12 | -0.585 ± 0.52 | 0.184 ± 1.3 | 0.63 ± 1.1 |  | 
Nc1ccc(C(=O)O)cc1 [4-Aminobenzoic acid] |  | -1.2 ± 2.3 |  | -2.3 ± 1.1 | -2.47 ± 0.28 | -1.41 ± 0.43 | -0.777 ± 0.61 | 1.93 ± 0.47 | -2.09 ± 0.27 | -0.757 ± 1.4
CC12CCC3C(CCC4=CC(=O)CCC43C)C1CCC2=O (configuration not stated) [4-Androstene-3,17-dione] | -0.88 ± 1.8 | -1.74 ± 1.8 | -3.47 ± 0.78 | -2.45 ± 0.041 | -1.84 ± 0.94 | -1.3 ± 1.1 | -0.324 ± 1.7 | 37.8 ± 21 |  | 
O=C1CCCO1 [4-Butyrolactone] | -0.251 ± 0.26 | -0.513 ± 0.22 | -0.359 ± 0.74 | -0.517 ± 0.14 | -0.65 ± 0.32 | 0.21 ± 0.013 | -0.668 ± 0.54 | 1.06 ± 1.1 |  | 
Nc1ccc(Cl)cc1N [4-Chloro-1,2-diaminobenzene] | -0.924 ± 0.44 | -0.99 ± 0.3 | -1.38 ± 0.26 | -1.19 ± 0.55 | -0.451 ± 0.11 | -0.557 ± 0.35 | -0.208 ± 0.24 | -0.194 ± 0.22 |  | 
Cc1cc(O)ccc1Cl [4-Chloro-3-methylphenol] | -0.825 ± 1.3 | -0.387 ± 0.92 | -0.309 ± 1.2 | -0.443 ± 0.47 | 0.57 ± 0.19 | 0.611 ± 0.11 | 0.786 ± 0.33 | 2.48 ± 0.35 |  | 
Nc1ccc(Cl)cc1 [4-Chloroaniline] | -1.56 ± 1.1 | -0.947 ± 0.94 | -2.25 ± 0.86 | -1.34 ± 1.4 | -0.444 ± 0.82 | -1.71 ± 0.56 | -1.53 ± 0.87 | 0.243 ± 0.87 |  | 
Clc1ccc(C(Cl)(Cl)Cl)cc1 [4-Chlorobenzotrichloride] | -1.85 ± 0.71 | -1.72 ± 0.36 | -2.4 ± 0.4 | -1.68 ± 1.3 | -1.91 ± 0.86 | -1.134 ± 0.011 | -0.341 ± 0.31 | 27.7 ± 9.1 |  | 
Cc1ccc(Cl)cc1 [4-Chlorotoluene] |  | -1.27 ± 2.3 |  | -2.78 ± 0.39 | -2.43 ± 0.42 | -1.55 ± 1.5 | -1.15 ± 0.57 | 1.18 ± 0.3 | -0.192 ± 0.14 | -1.26 ± 0.55
CC(C)(c1ccccc1)c1ccc(O)cc1 [4-Cumylphenol] | -1.06 ± 1.8 | 0.26 ± 0.48 | -1.3 ± 0.86 | -2.27 ± 0.56 | -0.891 ± 1.4 | -0.313 ± 0.88 | 2.91 ± 0.44 | 111 ± 5.5 |  | 
OC1CCC(C2CCCCC2)CC1 (configuration not stated) [4-Cyclohexylcyclohexanol] | -1.67 ± 0.32 | -1.27 ± 1.5 | -1.62 ± 1.1 | -2.39 ± 0.036 | -2.08 ± 1.7 | -1.58 ± 0.49 | -1.22 ± 0.35 | 0.00977 ± 0.63 |  | 
O=C1CCC(C2CCCCC2)CC1 [4-Cyclohexylcyclohexanone] | -0.737 ± 0.094 | -0.435 ± 0.51 | -0.827 ± 0.45 | -0.822 ± 0.7 | -0.588 ± 1.1 | 0.479 ± 0.26 | 0.205 ± 0.41 | 0.739 ± 1.3 |  | 
C#CC(O)C(CC)CCCC (configuration not stated) [4-Ethyloct-1-yn-3-ol] | -1.1 ± 1.3 | -0.852 ± 0.24 | -1.73 ± 0.62 | -1.75 ± 0.33 | -0.91 ± 0.66 | -1.32 ± 0.19 | -1.07 ± 0.15 | 0.266 ± 0.29 |  | 
CCCCCCCc1ccc(O)cc1 [4-Heptylphenol] | -0.653 ± 0.82 | -1.61 ± 0.21 | -0.99 ± 0.5 | -1.03 ± 0.079 | -1.8 ± 0.76 | -0.598 ± 0.18 | -0.324 ± 0.52 | 0.525 |  | 
CCCCCCc1ccc(O)cc1O [4-Hexylresorcinol] | -1.87 ± 0.26 | -0.709 ± 0.041 | -0.736 ± 1.1 | -1.64 ± 0.45 | -1.6 ± 1 | -1.36 ± 0.29 | 0.152 ± 0.4 | 1.18 ± 0.84 |  | 
COc1cc(C=O)ccc1O [4-Hydroxy-3-methoxybenzaldehyde] |  | -2.63 ± 0.42 |  | -4.06 ± 0.31 | -3.91 ± 0.7 | -3.69 ± 0.35 | -3.12 ± 0.07 | 0.307 ± 0.14 | -0.0885 ± 1.4 | -3.71 ± 0.71
CCC(=C(c1ccc(O)cc1)c1ccc(OCCN(C)C)cc1)c1ccccc1 [4-Hydroxytamoxifen] |  | -3.22 ± 0.47 |  | -3.76 ± 0.11 | -3.7 ± 0.16 | -3.42 ± 0.63 | -3.18 ± 0.93 | -0.0951 ± 1.1 | -1.94 ± 1 | -3.61 ± 1.1
CC(C)CC(C)O (configuration not stated) [4-Methyl-2-pentanol] | -0.36 ± 0.0099 | -0.242 ± 0.16 | -1.1 ± 0.37 | -1.21 ± 0.61 | -1.33 ± 0.84 | -1.04 ± 0.65 | 0.165 ± 0.21 | 2.03 ± 1 |  | 
Cc1ccc(N)cc1 [4-Methylaniline] | -1.74 ± 0.54 | -1.26 ± 0.25 | -1.71 ± 0.048 | -2.15 ± 0.07 | -1.82 ± 0.86 | -1.12 ± 0.11 | -1.47 ± 0.87 | 0.2 ± 0.81 |  | 
